Laboratory results: ChEMBL document CHEMBL1201862, “PubChem BioAssay data set” (2004)
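Method: 48-hour compound exposure of cells in 96-well plates, five concentrations, linear interpolation of endpoints. At the GI50, growth is halved.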 Calls of active or inactive are those of the source. Cut-off read from the data, not from the text of the source: active = GI50 up to about 1.1 µM and inactive = higher.

Legend:
Assay in all cases: NCI-60 cell line screen, 48 h
TK-10 = test system: TK-10
HCT-116 = test system: HCT-116
CCRF-CEM = test system: CCRF-CEM
DU-145 = test system: DU-145
SF-295 = test system: SF-295
HOP-92 = test system: HOP-92
786-0 = test system: 786-0
IGROV-1 = test system: IGROV-1
A549 = test system: A549
CAKI-1 = test system: CAKI-1
NCI-H522 = test system: NCI-H522
SNB-75 = test system: SNB-75
UO-31 = test system: UO-31
SF-268 = test system: SF-268
RPMI-8226 = test system: RPMI-8226
SK-MEL-5 = test system: SK-MEL-5
M14 = test system: M14
ACHN = test system: ACHN
T47D = test system: T47D

Row | Structure (SMILES) | GI50 (TK-10) | GI50 (HCT-116) | GI50 (CCRF-CEM) | GI50 (DU-145) | GI50 (SF-295) | GI50 (HOP-92) | GI50 (786-0) | GI50 (IGROV-1) | GI50 (A549) | GI50 (CAKI-1) | GI50 (NCI-H522) | GI50 (SNB-75) | GI50 (UO-31) | GI50 (SF-268) | GI50 (RPMI-8226) | GI50 (SK-MEL-5) | GI50 (M14) | GI50 (ACHN) | GI50 (T47D)
1 | COc1ccc2c(c1OC)C(=O)O[C@@H]2[C@H]1c2cc3c(cc2CCN1C)OCO3 | > 100 µM (inactive) | > 100 µM (inactive) | > 10 µM (inactive) | > 100 µM (inactive) | > 100 µM (inactive) | > 100 µM (inactive) | > 100 µM (inactive) | > 100 µM (inactive) | > 100 µM (inactive) | > 100 µM (inactive) | > 100 µM (inactive) | > 100 µM (inactive) | > 100 µM (inactive) | > 100 µM (inactive) | > 100 µM (inactive) | > 100 µM (inactive) | > 100 µM (inactive) | > 100 µM (inactive) | > 100 µM (inactive)
2 | CC(=O)O[C@H]1C(=O)[C@@]2(C)[C@H]([C@H](OC(=O)c3ccc([N+](=O)[O-])cc3)[C@]3(O)C[C@H](OC(=O)[C@H](O)[C@@H](NC(=O)c4ccccc4)c4ccccc4)C(C)=C1C3(C)C)[C@]1(OC(C)=O)CO[C@@H]1C[C@@H]2O | > 25 µM (inactive) | > 25 µM (inactive) | > 25 µM (inactive) | > 25 µM (inactive) | > 25 µM (inactive) | > 25 µM (inactive) | > 25 µM (inactive) | > 25 µM (inactive) | > 25 µM (inactive) | > 25 µM (inactive) | > 25 µM (inactive) | > 25 µM (inactive) | > 25 µM (inactive) | > 25 µM (inactive) | > 25 µM (inactive) | > 25 µM (inactive) | > 25 µM (inactive) | > 25 µM (inactive) | > 25 µM (inactive)
3 | CC(=O)NC1C(OCc2ccccc2)OC(CO)C(O)C1OCC(=O)N[C@@H](C)C(=O)N[C@H](CCC(=O)NCCCCNc1c2ccccc2nc2cccc([N+](=O)[O-])c12)C(N)=O (stereo not given in full) | 1.47 µM (inactive) | 0.637 µM (active) | 4.11 µM (inactive) | 1.91 µM (inactive) | 3.88 µM (inactive) | 0.748 µM (active) | 0.998 µM (active) | 0.804 µM (active) | 0.959 µM (active) | 1.49 µM (inactive) | 0.134 µM (active) | 1.79 µM (inactive) | 2.43 µM (inactive) | 2.58 µM (inactive) | 1.64 µM (inactive) | 0.516 µM (active) | 2.23 µM (inactive) | 1.33 µM (inactive) | 1.61 µM (inactive)
4 | COc1ccc(CNC(C)C(=O)O)cc1 (stereo not given) | > 100 µM (inactive) | > 100 µM (inactive) | 19.7 µM (inactive) | > 100 µM (inactive) | > 100 µM (inactive) | > 100 µM (inactive) | > 100 µM (inactive) | > 100 µM (inactive) | > 100 µM (inactive) | > 100 µM (inactive) | > 100 µM (inactive) | > 100 µM (inactive) | > 100 µM (inactive) | > 100 µM (inactive) | > 100 µM (inactive) | > 100 µM (inactive) | > 100 µM (inactive) | > 100 µM (inactive) | > 100 µM (inactive)
5 | O=C(NO)c1ccc(OCc2cccc(Cl)c2)cc1 | 11.6 µM (inactive) | 2.22 µM (inactive) | 2.66 µM (inactive) | 7.59 µM (inactive) | 9.33 µM (inactive) | 11.9 µM (inactive) | 6.11 µM (inactive) | 6.67 µM (inactive) | 8.18 µM (inactive) | 6.65 µM (inactive) | 3.27 µM (inactive) | 9.2 µM (inactive) | 7.43 µM (inactive) | 10.7 µM (inactive) | 3.27 µM (inactive) | 12.4 µM (inactive) | 12.9 µM (inactive) | 4.57 µM (inactive) | 6.97 µM (inactive)
